In ChEMBL document CHEMBL6115011, “Optimizing biofilm inhibitors: Balancing activity and toxicity in 2N-aminated 5-aryl-2-aminoimidazoles” (Bioorg Med Chem, 2025):

How the values were obtained:
Staphylococcus aureus [1] = experiment: Antibacterial activity against methicillin-resistant Staphylococcus aureus at 25 degree C measured after 48 hrs by crystal violet staining based microplate reader analysis; format: functional, organism-based
[2] = system: Staphylococcus epidermidis; experiment: Inhibition of biofilm formation in Staphylococcus epidermidis at 25 degree C measured after 48 hrs by crystal violet staining based analysis; format: functional, organism-based
Escherichia coli [3] = experiment: Inhibition of biofilm formation in Escherichia coli TG1 at 25 degree C measured after 24 hrs by crystal violet staining based microplate reader analysis; format: functional, organism-based; details: TG1, 24 h
Staphylococcus aureus [4] = experiment: Inhibition of biofilm formation in Staphylococcus aureus SH1000 at 25 degree C measured after 48 hrs by crystal violet staining based analysis; format: functional, organism-based; details: SH1000, 48 h
[5] = Cytotoxicity against human PBMC cells assessed as survival rate at 25 to 100 uM measured after 72 hrs by trypan blue staining based assay; format: toxicity, cell-based; details: dose 25-100 µM
Staphylococcus aureus [6] = experiment: Antibacterial activity against Staphylococcus aureus SH1000 at 25 degree C measured after 48 hrs by crystal violet staining based microplate reader analysis; format: functional, organism-based; details: SH1000, 48 h
[7] = Genotoxicity in human CAPAN-1 cells at 100 to 400 uM measured after 3 hrs by Western blot analysis; format: toxicity, cell-based; details: capan-1, 3 h, dose 100-400 µM
Pseudomonas aeruginosa [8] = experiment: Inhibition of biofilm formation in Pseudomonas aeruginosa PA14 at 25 degree C measured after 24 hrs by crystal violet staining based analysis; format: functional, organism-based; details: PA14, 24 h
Pseudomonas aeruginosa [9] = experiment: Antibacterial activity against Pseudomonas aeruginosa PA14 at 25 degree C measured after 24 hrs by crystal violet staining based microplate reader analysis; format: functional, organism-based; details: PA14, 24 h
Escherichia coli [10] = experiment: Antibacterial activity against Escherichia coli TG1 at 25 degree C measured after 24 hrs by crystal violet staining based microplate reader analysis; format: functional, organism-based; details: TG1, 24 h
[11] = Cytotoxicity against human PBMC cells assessed as survival rate at 400 uM measured after 72 hrs by trypan blue staining based assay (reference value: 48%); format: toxicity, cell-based; details: read-out: Survival
Staphylococcus aureus [12] = experiment: Inhibition of biofilm formation in methicillin-resistant Staphylococcus aureus at 25 degree C measured after 48 hrs by crystal violet staining based analysis; format: functional, organism-based
[13] = Cytotoxicity against human PBMC cells assessed as survival rate at 25 uM measured after 72 hrs by trypan blue staining based assay (reference value: 94.0%); format: toxicity, cell-based; details: read-out: Survival
[14] = system: Staphylococcus epidermidis; experiment: Antibacterial activity against Staphylococcus epidermidis at 25 degree C measured after 48 hrs by crystal violet staining based microplate reader analysis; format: functional, organism-based
[15] = Cytotoxicity against human PBMC cells assessed as survival rate at 400 uM measured after 72 hrs by trypan blue staining based assay relative to control; format: toxicity, cell-based; details: read-out: Survival
[16] = Cytotoxicity against human PBMC cells assessed as survival rate at 100 uM measured after 72 hrs by trypan blue staining based assay relative to control; format: toxicity, cell-based; details: read-out: Survival

Row | Compound | IC50 (Staphylococcus aureus [1]) | IC50 [2] | IC50 (Escherichia coli [3]) | IC50 (Staphylococcus aureus [4]) | Activity [5] | IC50 (Staphylococcus aureus [6]) | Activity [7] | IC50 (Pseudomonas aeruginosa [8]) | IC50 (Pseudomonas aeruginosa [9]) | IC50 (Escherichia coli [10]) | viability at 72 h, 400 µM [11] | IC50 (Staphylococcus aureus [12]) | viability at 72 h, 25 µM [13] | IC50 [14] | viability at 72 h, 400 µM [15] | viability at 72 h, 100 µM [16]
1 | NCCCCNc1ncc(-c2ccccc2)[nH]1 | 578 µM | 33.3 µM | 35.3 µM | 155 µM | Non-toxic | 287 µM | Non-toxic | 17 µM | 85.8 µM | 56.6 µM | 9% | 138 µM |  |  |  | 
2 | NCCCCCCNc1ncc(-c2ccccc2)[nH]1 | 206 µM | 29.2 µM | 26.5 µM | 95.6 µM |  | 186 µM | Non-toxic | 23.4 µM | 73.4 µM | 55.3 µM |  | 62.7 µM | 78.6% | 164 µM | 2.9% | 12.9%
